The conditions of series [1]: 101 kPa, Liquid, Vibrating tube method.
Series [2] can be described thus: xn = mol fraction of the nth substance listed. The conditions noted are these: 101 kPa, Liquid, Vibrating tube method, x1 = 1.

“And” between values parts separate entries of the source, which are not always exact repeats. Identical values can stand only once. ± gives the expanded uncertainty stated by the source.

For `Cc1ccccc1` [toluene], the mass density in series [1] (298.15 K) is 862.222 ± 0.21 kg/m3.

Regarding `c1ccncc1` [pyridine], the mass density is 988.041 ± 0.2 kg/m3 and 988.343 ± 0.2 kg/m3 in series [1] (288.15 K); 978.145 ± 0.2 kg/m3 and 978.086 ± 0.2 kg/m3 in series [1] (298.15 K); 921.953 ± 0.21 kg/m3 and 921.952 ± 0.21 kg/m3 in series [1] (353.15 K).

Turning to `c1ccncc1` [pyridine] + NCCO, the mass density was determined as 988.041 ± 0.2 kg/m3 in series [2] (288.15 K), 978.145 ± 0.2 kg/m3 in series [2] (298.15 K) and 921.953 ± 0.21 kg/m3 in series [2] (353.15 K).

As to `CN(CCO)CCO` [N-methyldiethanolamine], the mass density was 1046.36 ± 0.21 kg/m3 in series [1] (288.15 K), 1036.81 ± 0.21 kg/m3 in series [1] (298.15 K) and 994.015 ± 0.2 kg/m3 in series [1] (353.15 K).

Turning to `c1ccncc1` [pyridine] + CN(CCO)CCO, the mass density in series [2] (288.15 K) came to 988.343 ± 0.2 kg/m3; in series [2] (298.15 K), 978.086 ± 0.2 kg/m3; in series [2] (353.15 K), 921.952 ± 0.21 kg/m3.

For `CCCCCCC` [heptane] + Cc1ccccc1, the mass density in series [2] (298.15 K) came to 679.537 ± 0.26 kg/m3.

In the case of `CCCCCCC` [heptane], in series [1] (298.15 K), the mass density is recorded as 679.537 ± 0.26 kg/m3.

On to `NCCO` [2-aminoethan-1-ol], for which the mass density in series [1] (288.15 K) came to 1019.87 ± 0.2 kg/m3; in series [1] (298.15 K), 1012.12 ± 0.2 kg/m3; in series [1] (353.15 K), 968.332 ± 0.2 kg/m3.

The values are drawn from the NIST ThermoML archive (doi:10.1021/je400184t).
